SMILES strings stand for the structures.

This test has as its target T1, human liver glycogen phosphorylase (Homo sapiens, UniProt P06737).
T1 construct: made in house; host or cells: Sf9 insect cells (suspension of disrupted cells, diluted in BES buffer, not purified)
T1 sequence (P06737 1-847): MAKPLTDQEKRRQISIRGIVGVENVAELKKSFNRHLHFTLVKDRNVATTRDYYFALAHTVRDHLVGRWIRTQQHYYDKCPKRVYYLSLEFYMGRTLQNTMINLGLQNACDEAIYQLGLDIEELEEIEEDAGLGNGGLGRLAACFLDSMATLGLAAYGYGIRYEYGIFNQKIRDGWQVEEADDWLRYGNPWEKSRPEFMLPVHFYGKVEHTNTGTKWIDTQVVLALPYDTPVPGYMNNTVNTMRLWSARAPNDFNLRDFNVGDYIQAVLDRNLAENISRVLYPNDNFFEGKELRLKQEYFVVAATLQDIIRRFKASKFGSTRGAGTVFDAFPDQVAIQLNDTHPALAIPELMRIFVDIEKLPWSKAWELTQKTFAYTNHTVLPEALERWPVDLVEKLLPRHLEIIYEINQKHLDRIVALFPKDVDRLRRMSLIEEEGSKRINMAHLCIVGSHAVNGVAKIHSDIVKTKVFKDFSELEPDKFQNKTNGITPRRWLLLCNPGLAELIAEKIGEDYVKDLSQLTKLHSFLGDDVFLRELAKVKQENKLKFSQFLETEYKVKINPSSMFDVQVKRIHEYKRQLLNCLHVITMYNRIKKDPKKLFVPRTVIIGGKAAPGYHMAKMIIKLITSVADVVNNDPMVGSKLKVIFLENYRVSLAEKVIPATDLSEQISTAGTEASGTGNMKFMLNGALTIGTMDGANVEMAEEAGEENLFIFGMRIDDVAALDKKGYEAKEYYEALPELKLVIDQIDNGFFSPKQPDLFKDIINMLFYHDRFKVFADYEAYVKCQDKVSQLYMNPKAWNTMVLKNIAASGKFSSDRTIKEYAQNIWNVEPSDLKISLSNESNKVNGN
The test is described as follows: Liver glycogen phosphorylase activity, forward reaction system (NADPH detection at 340 nm). To be noted: enzyme inhibitory activity against recombinant human liver glycogen phosphorylase (Sf9 cell lysate), room temperature, 75 minutes. It is filed as biochemical. As to the method: The glycogen phosphorylase activity was determined by a method using a forward reaction system.
The following method was used to determine the glycogen phosphorylase activity using a forward reaction system. Glucose-1-phosphate generated from glycogen by glycogen phosphorylase was converted to glucono-δ-lactone-6-phosphate by transphosphorylation and dehydrogenation reactions using phosphoglucomutase and glucose-6-phosphate dehydrogenase (G6PDH). At this time, NADPH generated from NADP in the dehydrogenation reaction by G6PDH was detected.
An enzyme solution of human liver glycogen phosphorylase was obtained by diluting with 100 mmol/L BES buffer (pH 6.8, containing 2 mmol/L EDTA) a suspension disrupted Sf9 cells in which a recombinant human liver glycogen phosphorylase was forcibly expressed. Phosphate buffer (16 mmol/L KH2PO4, containing 24 mmol/L Na2HPO4) was used as a substrate solution. A mixture of 8 U/mL phosphoglucomutase and 60 U/mL G6PDH was prepared with BES buffer. A reaction buffer (1.4 mmol/L NADP, 30 mmol/L MgCl2, 8 μmol/L glucose-1,6-diphosphate, 8 mg/mL glycogen, 40 mmol/L BES, containing 0.8 mmol/L EDTA) and a glucose solution (75 mmol/L glucose and 100 mmol/L BES, containing 2 mmol/L EDTA) were prepared. A test substance was dissolved in 1% DMSO aqueous solution.
To a mixture of the glucose solution (20 μL), the substrate solution (20 μL), the reaction buffer (100 μL), and the test substance (20 μL), the recombinant human liver glycogen phosphorylase solution (20 μL), and a mixture (20 μL) of phosphoglucomutase and G6PDH were added to initiate an enzymatic reaction. To a control, 1% DMSO aqueous solution was added instead of the test substance. A solution to which the substrate was not added was used as a blank. After initiation of the reaction, absorbance at 340 nm was measured immediately. The reaction was performed at room temperature for 75 minutes, and then absorbance at 340 nm was measured again. The enzyme activity was obtained by deducting the change in absorbance of the blank for 75 minutes from the change in absorbance over 75 minutes. The inhibition rate (%) of the test substance was calculated by “(1−(enzyme activity of test substance)/(enzyme activity of control))×100”.
“IC50” represents an enzyme inhibitory activity against human liver glycogen phosphorylase.

The term IC50 denotes the concentration needed to halve the response being measured. For the compound `Cc1cccc(-c2onc(C)c2CNC(=O)c2cc(NC(=O)c3cc(F)c(F)cc3Cl)[nH]n2)n1` [Example 1-19, 5-(2-chloro-4,5-difluoro-benzoylamino)-1H-pyrazole-3-carboxylic acid [3-methyl-5-(6-methyl-pyridin-2-yl)-isoxazol-4-ylmethyl]-amide], the IC50 is under 100 nM.

Turning to `CCN(CC)C(=O)COCc1nc(C)c(CNC(=O)c2cc(NC(=O)c3cc(F)c(F)cc3Cl)[nH]n2)o1` [Example 3-8, 5-(2-chloro-4,5-difluoro-benzoylamino)-1H-pyrazole-3-carboxylic acid (2-diethylcarbamoyl methoxymethyl-4-methyl-oxazol-5-ylmethyl)-amide], the IC50 is under 100 nM. As for `Cc1ncc(CNC(=O)c2cc(NC(=O)c3cc(F)c(F)cc3Cl)[nH]n2)c(-c2oc(C)nc2C)n1` [Example 1-83, 5-(2-chloro-4,5-difluoro-benzoylamino)-1H-pyrazole-3-carboxylic acid [4-(2,4-dimethyl-oxazol-5-yl)-2-methyl-pyrimidin-5-ylmethyl]-amide], the half-inhibitory concentration (IC50) was under 100 nM.

`Cc1nc(COCC(F)(F)F)oc1CNC(=O)c1cc(NC(=O)c2cc(F)c(F)cc2Cl)[nH]n1` [Example 1-46]: the IC50 was under 100 nM. Then `Cc1ccc(-c2onc(C)c2CNC(=O)c2cc(NC(=O)c3cc(F)c(F)cc3Cl)[nH]n2)cn1` [Example 1-21, 5-(2-chloro-4,5-difluoro-benzoylamino)-1H-pyrazole-3-carboxylic acid [3-methyl-5-(6-methyl-pyridin-3-yl)-isoxazol-4-ylmethyl]-amide], with under 100 nM; and `Cc1nc(CCc2ccccc2)oc1CNC(=O)c1cc(NC(=O)c2cc(F)c(F)cc2Cl)[nH]n1` [Example 1-42, 5-(2-chloro-4,5-difluoro-benzoylamino)-1H-pyrazole-3-carboxylic acid (4-methyl-2-phenethyl-oxazol-5-ylmethyl)-amide], with under 100 nM. Then `CCOC(=O)c1ccc(CNC(=O)c2cc(NC(=O)c3cc(F)c(F)cc3Cl)[nH]n2)o1` [Example 1-1, 5-(2-chloro-4,5-difluoro-benzoylamino)-1H-pyrazole-3-carboxylic acid (5-ethoxycarbonyl-furan-2-ylmethyl)-amide], with under 100 nM; and `Cc1ccc(S(=O)(=O)NCc2nc(C)c(CNC(=O)c3cc(NC(=O)c4cc(F)c(F)cc4Cl)[nH]n3)o2)cc1` [Example 3-11, 5-(2-chloro-4,5-difluoro-benzoylamino)-1H-pyrazole-3-carboxylic acid {4-methyl-2-[(toluene-4-sulfonylamino)-methyl]-oxazol-5-ylmethyl}-amide], with under 100 nM. With `CCOC(=O)c1nc(C)oc1CNC(=O)c1cc(NC(=O)c2cc(F)c(F)cc2Cl)[nH]n1` [Example 1-34, 5-(2-chloro-4,5-difluoro-benzoylamino)-1H-pyrazole-3-carboxylic acid (4-ethoxycarbonyl-2-methyl-oxazol-5-ylmethyl)-amide], the half-maximal inhibitory concentration (IC50) is under 100 nM. With `Cc1nc(COC(c2ccccc2)(c2ccccc2)c2ccccc2)oc1CNC(=O)c1cc(NC(=O)c2cc(F)c(F)cc2Cl)[nH]n1` [Example 1-43, 5-(2-chloro-4,5-difluoro-benzoylamino)-1H-pyrazole-3-carboxylic acid (4-methyl-2-trityloxymethyl-oxazol-5-ylmethyl)-amide], the IC50 was over 300 nM. For `Cc1nc(Sc2ccccc2)oc1CNC(=O)c1cc(NC(=O)c2cc(F)c(F)cc2Cl)[nH]n1` [Example 1-49, 5-(2-chloro-4,5-difluoro-benzoylamino)-1H-pyrazole-3-carboxylic acid (4-methyl-2-phenylsulfanyl-oxazol-5-ylmethyl)-amide] the value was under 100 nM; for `Cc1nc(C(=O)O)sc1CNC(=O)c1cc(NC(=O)c2cc(F)c(F)cc2Cl)[nH]n1` [Example 3-2, sodium 5-({[5-(2-chloro-4,5-difluoro-benzoylamino)-1H-pyrazole-3-carbonyl]-amino}-methyl)-4-methyl-thiazole-2-carboxylate], under 100 nM; for `O=C(NCc1ccc(C(=O)O)o1)c1cc(NC(=O)c2cc(F)c(F)cc2Cl)[nH]n1` [Example 3-1, 5-(2-chloro-4,5-difluoro-benzoylamino)-1H-pyrazole-3-carboxylic acid (2-carboxy-furan-5-ylmethyl)-amide], under 100 nM.

Take `O=C(NCc1cncnc1C1CC1)c1cc(NC(=O)c2cc(F)c(F)cc2Cl)[nH]n1` [Example 1-81, 5-(2-chloro-4,5-difluoro-benzoylamino)-1H-pyrazole-3-carboxylic acid (4-cyclopropyl-pyrimidin-5-ylmethyl)-amide]: the concentration for half-maximal inhibition (IC50) is under 100 nM. Then `Cc1nc2c(s1)CN(C(=O)c1cc(NC(=O)c3cc(F)c(F)cc3Cl)[nH]n1)CC2` [Example 1-12], with 100 to 300 nM; and `CCOC(=O)Cc1nnc(CNC(=O)c2cc(NC(=O)c3cc(F)c(F)cc3Cl)[nH]n2)o1` [Example 1-62], with 100 to 300 nM. For `Cc1noc(-c2noc(C)c2CNC(=O)c2cc(NC(=O)c3cc(F)c(F)cc3Cl)[nH]n2)n1` [Example 1-70, 5-(2-chloro-4,5-difluoro-benzoylamino)-1H-pyrazole-3-carboxylic acid [5-methyl-3-(3-methyl-[1,2,4]oxadiazol-5-yl)-isoxazol-4-ylmethyl]-amide] the value was under 100 nM; for `O=C(NCc1nnc(-c2cccc(Cl)c2)o1)c1cc(NC(=O)c2cc(F)c(F)cc2Cl)[nH]n1` [Example 1-59, 5-(2-chloro-4,5-difluoro-benzoylamino)-1H-pyrazole-3-carboxylic acid [5-(3-chloro-phenyl)-[1,3,4]oxadiazol-2-ylmethyl]-amide], under 100 nM; for `CCOC(=O)c1nc(C)c(CNC(=O)c2cc(NC(=O)c3cc(F)c(F)cc3Cl)[nH]n2)s1` [Example 1-10, 5-(2-chloro-4,5-difluoro-benzoylamino)-1H-pyrazole-3-carboxylic acid (2-ethoxycarbonyl-4-methyl-thiazol-5-ylmethyl)-amide], under 100 nM.

As to `Cc1onc(-c2ccccc2F)c1CNC(=O)c1cc(NC(=O)c2cc(F)c(F)cc2Cl)[nH]n1` [Example 1-17, 5-(2-chloro-4,5-difluoro-benzoylamino)-1H-pyrazole-3-carboxylic acid [3-(2-fluoro-phenyl)-5-methylisoxazol-4-ylmethyl]-amide], the IC50 was in the range of 100 to 300 nM. For `O=C(NCc1nnc(-c2ccccc2O)o1)c1cc(NC(=O)c2cc(F)c(F)cc2Cl)[nH]n1` [Example 1-58, 5-(2-chloro-4,5-difluoro-benzoylamino)-1H-pyrazole-3-carboxylic acid [5-(2-hydroxy-phenyl)-[1,3,4]oxadiazol-2-ylmethyl]-amide], the half-maximal inhibitory concentration (IC50) is under 100 nM.

On to `O=C(NCc1nnc(-c2cccc(Cl)c2)s1)c1cc(NC(=O)c2cc(F)c(F)cc2Cl)[nH]n1` [Example 1-85], for which the IC50 is under 100 nM. For `COC(=O)c1nc(C)c(CNC(=O)c2cc(NC(=O)c3cc(F)c(F)cc3Cl)[nH]n2)o1` [Example 1-50, 5-(2-chloro-4,5-difluoro-benzoylamino)-1H-pyrazole-3-carboxylic acid (2-methoxycarbonyl-4-methyl-oxazol-5-ylmethyl)-amide] the value was under 100 nM.

Source of the values: patent publication US20090036450A1, “PYRAZOLE COMPOUNDS AND USE THEREOF” (JAPAN TOBACCO, INC., priority 2006, published 2009).
